Test results taken from ChEMBL document CHEMBL3399942, “Identification and optimization of pyridazinones as potent and selective c-Met kinase inhibitors” (Bioorg Med Chem Lett, 2015).
One block for each compound: values may come before it. Calls of active or inactive are those of the source. No cut-off for these calls is given here.

How the values were obtained:
[1] = Clearance in NMRI mouse at 0.2 mg/kg, iv and 0.5 mg/kg, po by LC/MS/MS analysis; format: ADME, organism-based; conditions: in vivo
[2] = Oral bioavailability in NMRI mouse at 0.5 mg/kg by LC/MS/MS analysis; format: ADME, organism-based; conditions: in vivo
[3] = Lipophilicity, log D of the compound; format: physicochemical; conditions: octanol/water
[4] = target: T1, Hepatocyte growth factor receptor (Homo sapiens, UniProt P08581); experiment: Inhibition of GST-His6-tagged recombinant human c-Met kinase domain (956 to 1390) after 60 mins by anoff-chip mobility shift assay
T1 sequence (P08581 whole entry, the tested form may be a part): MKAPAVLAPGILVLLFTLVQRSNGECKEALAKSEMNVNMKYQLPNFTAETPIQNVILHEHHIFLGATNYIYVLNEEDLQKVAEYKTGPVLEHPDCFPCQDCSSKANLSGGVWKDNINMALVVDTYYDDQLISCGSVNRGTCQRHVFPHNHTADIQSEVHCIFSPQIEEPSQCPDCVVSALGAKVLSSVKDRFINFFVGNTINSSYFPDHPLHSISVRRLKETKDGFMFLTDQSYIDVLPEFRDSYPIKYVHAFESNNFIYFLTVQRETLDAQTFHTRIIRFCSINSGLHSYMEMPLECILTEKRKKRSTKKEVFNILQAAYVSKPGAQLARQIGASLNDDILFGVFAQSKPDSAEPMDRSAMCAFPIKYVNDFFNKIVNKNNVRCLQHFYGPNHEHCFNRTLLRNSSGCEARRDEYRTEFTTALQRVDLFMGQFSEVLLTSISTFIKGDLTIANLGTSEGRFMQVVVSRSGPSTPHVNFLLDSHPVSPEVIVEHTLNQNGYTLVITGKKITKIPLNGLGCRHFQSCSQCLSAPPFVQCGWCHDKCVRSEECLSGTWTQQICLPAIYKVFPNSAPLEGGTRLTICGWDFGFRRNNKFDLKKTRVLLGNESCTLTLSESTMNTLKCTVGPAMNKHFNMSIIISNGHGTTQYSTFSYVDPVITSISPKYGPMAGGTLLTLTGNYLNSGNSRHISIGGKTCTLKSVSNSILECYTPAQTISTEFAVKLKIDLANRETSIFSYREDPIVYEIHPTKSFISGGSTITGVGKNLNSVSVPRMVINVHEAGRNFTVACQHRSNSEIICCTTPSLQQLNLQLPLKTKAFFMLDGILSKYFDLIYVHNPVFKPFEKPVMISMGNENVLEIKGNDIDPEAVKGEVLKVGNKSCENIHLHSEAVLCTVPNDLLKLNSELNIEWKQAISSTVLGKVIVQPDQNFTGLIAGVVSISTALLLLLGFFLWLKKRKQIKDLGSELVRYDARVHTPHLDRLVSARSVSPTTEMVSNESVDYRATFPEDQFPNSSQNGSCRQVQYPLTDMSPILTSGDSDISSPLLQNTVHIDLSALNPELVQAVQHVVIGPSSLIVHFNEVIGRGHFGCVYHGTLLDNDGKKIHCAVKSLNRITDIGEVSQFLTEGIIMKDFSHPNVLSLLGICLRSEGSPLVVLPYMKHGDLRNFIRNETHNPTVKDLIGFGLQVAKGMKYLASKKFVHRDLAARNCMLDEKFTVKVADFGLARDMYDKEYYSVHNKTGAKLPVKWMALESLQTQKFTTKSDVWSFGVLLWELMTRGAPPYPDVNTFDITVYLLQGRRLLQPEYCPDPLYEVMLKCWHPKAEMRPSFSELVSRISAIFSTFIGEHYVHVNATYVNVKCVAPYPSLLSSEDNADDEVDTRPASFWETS

[5] = target: T1, Hepatocyte growth factor receptor; experiment: Inhibition of c-Met kinase in human A549 cells assessed as inhibition of phosphorylation after 45 mins by electrochemiluminescence assay
Phosphodiesterase 4 [6] = target: T2, Phosphodiesterase 4 (Homo sapiens, UniProt P27815+Q08499+Q07343+Q08493); experiment: Inhibition of PDE4 (unknown origin); format: protein assay
Phosphodiesterase 3 [7] = target: T3, Phosphodiesterase 3 (Homo sapiens, UniProt Q14432+Q13370); experiment: Inhibition of PDE3 (unknown origin); format: protein assay
Phosphodiesterase 3 [8] = target: T3, Phosphodiesterase 3; experiment: Inhibition of PDE3 (unknown origin) at 10 uM; format: protein assay
Phosphodiesterase 4 [9] = target: T2, Phosphodiesterase 4; experiment: Inhibition of PDE4 (unknown origin) at 10 uM; format: protein assay
[10] = Cmax in beagle dog at 5 mg/kg, po after 48 hrs by LC/MS/MS analysis; format: ADME, organism-based, Canis lupus familiaris; set-up: dose 5 mg/kg, route oral; conditions: in vivo
[11] = Cmax in cynomolgus monkey at 5 mg/kg, po after 72 hrs by LC/MS/MS analysis; format: ADME, organism-based, Macaca fascicularis; set-up: dose 5 mg/kg, route oral; conditions: in vivo
[12] = Plasma protein binding in human at 10 uM; format: ADME, cell-free; conditions: read-out: PPB (converted)
[13] = Volume of distribution at steady state in NMRI mouse at 2 mg/kg, iv after 24 hrs by LC/MS/MS analysis; format: ADME, organism-based; set-up: dose 2 mg/kg, route intravenous; conditions: in vivo, read-out: Vdss
[14] = Volume of distribution at steady state in beagle dog at 2 mg/kg, iv after 48 hrs by LC/MS/MS analysis; format: ADME, organism-based, Canis lupus familiaris; set-up: dose 2 mg/kg, route intravenous; conditions: in vivo, read-out: Vdss
[15] = Oral bioavailability in beagle dog at 5 mg/kg after 48 hrs by LC/MS/MS analysis; format: ADME, organism-based, Canis lupus familiaris; conditions: in vivo
[16] = Clearance in cynomolgus monkey at 2 mg/kg, iv after 72 hrs by LC/MS/MS analysis; format: ADME, organism-based, Macaca fascicularis; set-up: dose 2 mg/kg, route intravenous; conditions: in vivo
[17] = Cmax in NMRI mouse at 5 mg/kg, po after 24 hrs by LC/MS/MS analysis; format: ADME, organism-based; set-up: dose 5 mg/kg, route oral; conditions: in vivo
[18] = Cmax in Wistar rat at 6 mg/kg, po after 24 hrs by LC/MS/MS analysis; format: ADME, organism-based; set-up: dose 6 mg/kg, route oral; conditions: in vivo
[19] = Plasma protein binding in human at 0.3 uM; format: ADME, cell-free; conditions: read-out: PPB (converted)
[20] = Fraction unbound in beagle dog plasma; format: ADME, cell-free, Canis lupus familiaris
[21] = Volume of distribution at steady state in Wistar rat at 3 mg/kg, iv after 24 hrs by LC/MS/MS analysis; format: ADME, organism-based; set-up: dose 3 mg/kg, route intravenous; conditions: in vivo, read-out: Vdss
[22] = Oral bioavailability in cynomolgus monkey at 5 mg/kg after 72 hrs by LC/MS/MS analysis; format: ADME, organism-based, Macaca fascicularis; conditions: in vivo
[23] = Volume of distribution at steady state in cynomolgus monkey at 2 mg/kg, iv after 72 hrs by LC/MS/MS analysis; format: ADME, organism-based, Macaca fascicularis; set-up: dose 2 mg/kg, route intravenous; conditions: in vivo, read-out: Vdss
EBC-1 = experiment: Antitumor activity against human EBC1 cells xenografted in CD-1 nude mouse assessed as tumor regression at 15 mg/kg, po qd administered for 5 days on and 2 days off up to 32 days; format: functional, organism-based; set-up: dose 15 mg/kg
[24] = Toxicity in po dosed CD-1 nude mouse xenografted with human EBC1 cells administered qd for 5 days on and 2 days off up to 32 days; format: organism-based; conditions: in vivo
[25] = Fraction unbound in cynomolgus monkey plasma; format: ADME, cell-free, Macaca fascicularis
[26] = Oral bioavailability in Wistar rat at 6 mg/kg after 24 hrs by LC/MS/MS analysis; format: ADME, organism-based; conditions: in vivo
[27] = Clearance in Wistar rat at 3 mg/kg, iv after 24 hrs by LC/MS/MS analysis; format: ADME, organism-based; set-up: dose 3 mg/kg, route intravenous; conditions: in vivo
[28] = Fraction unbound in NMRI mouse plasma; format: ADME, cell-free
[29] = Half life in NMRI mouse at 2 mg/kg, iv after 24 hrs by LC/MS/MS analysis; format: ADME, organism-based; set-up: dose 2 mg/kg, route intravenous; conditions: in vivo
[30] = Half life in beagle dog at 2 mg/kg, iv after 48 hrs by LC/MS/MS analysis; format: ADME, organism-based, Canis lupus familiaris; set-up: dose 2 mg/kg, route intravenous; conditions: in vivo
[31] = Fraction unbound in Wistar rat plasma; format: ADME, cell-free
[32] = Half life in cynomolgus monkey at 2 mg/kg, iv after 72 hrs by LC/MS/MS analysis; format: ADME, organism-based, Macaca fascicularis; set-up: dose 2 mg/kg, route intravenous; conditions: in vivo
Mus musculus = experiment: Toxicity in CD-1 nude mouse xenografted with human EBC1 cells assessed as body weight loss at 15 mg/kg, po qd administered for 5 days on and 2 days off up to 32 days; format: organism-based; set-up: dose 15 mg/kg, route oral; conditions: in vivo
[33] = Clearance in beagle dog at 2 mg/kg, iv after 48 hrs by LC/MS/MS analysis; format: ADME, organism-based, Canis lupus familiaris; set-up: dose 2 mg/kg, route intravenous; conditions: in vivo
[34] = Clearance in NMRI mouse at 2 mg/kg, iv after 24 hrs by LC/MS/MS analysis; format: ADME, organism-based; set-up: dose 2 mg/kg, route intravenous; conditions: in vivo
[35] = Fraction unbound in human plasma; format: ADME, cell-free
[36] = Oral bioavailability in NMRI mouse at 5 mg/kg after 24 hrs by LC/MS/MS analysis; format: ADME, organism-based; conditions: in vivo
[37] = Half life in Wistar rat at 3 mg/kg, iv after 24 hrs by LC/MS/MS analysis; format: ADME, organism-based; set-up: dose 3 mg/kg, route intravenous; conditions: in vivo
[38] = Aqueous solubility of the compound in phosphate buffer at pH 7.4; format: physicochemical

Compound: CN(C)CCCOc1cnc(-c2cccc(Cn3nc(-c4cccc(C#N)c4)ccc3=O)c2)nc1
clearance [1]: 102 mL/min/kg
bioavailability [2]: 32%
logD [3]: 2.4

Compound: Cc1cnc(-c2cccc(Cn3nc(-c4cc(F)cc(F)c4)ccc3=O)c2)[nH]1
IC50 [4]: 5300 nM

Compound: CN(C)CCCOc1cnc(-c2cccc(Cn3nc(-c4cccnc4)ccc3=O)c2)nc1
logD [3]: 1.4

Compound: CN(C)CCCOC(=O)Nc1cccc(Cn2nc(-c3cc(F)cc(F)c3)ccc2=O)c1
clearance [1]: 51.7 mL/min/kg
bioavailability [2]: 30%

Compound: Cc1nc(-c2cccc(Cn3nc(-c4cc(F)cc(F)c4)ccc3=O)c2)no1
IC50 [4]: 800 nM

Compound: CN(C)CCCOc1cnc(-c2cccc(Cn3nc(-c4cc(F)cc(F)c4)ccc3=O)c2)nc1
logD [3]: 3

Compound: CN1CCC(COc2cnc(-c3cccc(Cn4nc(-c5cccc(C#N)c5)ccc4=O)c3)nc2)CC1 [TEPOTINIB]
Cmax [10]: 22.4 ng/mL
Cmax [11]: 55.5 ng/mL
clearance [1]: 60 mL/min/kg
fraction unbound at 10 µM [12]: 0.034
Vd [13]: 8.2 L/kg
Vd [14]: 26 L/kg
bioavailability [2]: 34%
bioavailability [15]: 22%
clearance [16]: 12.2 mL/min/kg
Cmax [17]: 62.2 ng/mL
Cmax [18]: 66 ng/mL
fraction unbound at 0.3 µM [19]: 0.016
fraction unbound [20]: 0.064
Vd [21]: 20 L/kg
bioavailability [22]: 25%
Vd [23]: 9.6 L/kg
Activity (EBC-1): Active
MTD [24]: 15 mg/kg
fraction unbound [25]: 0.052
bioavailability [26]: 55%
clearance [27]: 78.3 mL/min/kg
fraction unbound [28]: 0.028
half-life [29]: 126 min
half-life [30]: 456 min
fraction unbound [31]: 0.041
half-life [32]: 600 min
Activity (Mus musculus): Non-toxic
clearance [33]: 55 mL/min/kg
clearance [34]: 66.7 mL/min/kg
fraction unbound [35]: 0.023
bioavailability [36]: 41%
half-life [37]: 192 min

Compound: CN(C)CCCOc1cnc(-c2cccc(Cn3nc(-c4cccc(F)c4)ccc3=O)c2)nc1
IC50 [5]: 140 nM
logD [3]: 2.6
IC50 [4]: 6.5 nM

Compound: CN(C)CCCOC(=O)Nc1cccc(CN2N=C(c3cc(F)cc(F)c3)CSC2=O)c1
clearance [1]: 56.7 mL/min/kg
bioavailability [2]: 25%
IC50 [5]: 78 nM
IC50 [4]: 23 nM

Compound: CN(C)CCCOC(=O)Nc1cccc(Cn2nc(-c3ccc(F)cc3)ccc2=O)c1
inhibition (Phosphodiesterase 3 [8]): 28%
inhibition (Phosphodiesterase 4 [9]): 8%

Compound: Cc1cnc(-c2cccc(Cn3nc(-c4cc(F)cc(F)c4)ccc3=O)c2)nc1
solubility [38]: < 1 µg/mL

The next lines start with the values.

clearance [1]: 35 mL/min/kg
bioavailability [2]: 35%
IC50 [5]: 34 nM
IC50 [4]: 1 nM
Compound: N#Cc1cccc(-c2ccc(=O)n(Cc3cccc(-c4ncc(OCCN5CCOCC5)cn4)c3)n2)c1

clearance [1]: 100 mL/min/kg
bioavailability [2]: < 5%
IC50 [5]: 1100 nM
IC50 (Phosphodiesterase 4 [6]): 63 nM
IC50 (Phosphodiesterase 3 [7]): 1500 nM
IC50 [4]: 400 nM
Compound: CCN(CC)CCCOC(=O)Nc1cccc(CN2N=C(c3ccc(OC)c(OC)c3)CSC2=O)c1

inhibition (Phosphodiesterase 3 [8]): 1%
inhibition (Phosphodiesterase 4 [9]): 49%
IC50 [4]: 90 nM
Compound: CCN(CC)CCCOC(=O)Nc1cccc(CN2N=C(c3ccc(Cl)cc3)CSC2=O)c1

inhibition (Phosphodiesterase 3 [8]): 8%
inhibition (Phosphodiesterase 4 [9]): 19%
Compound: O=C(Nc1cccc(Cn2nc(-c3cc(F)cc(F)c3)ccc2=O)c1)OCCCN1CCOCC1

logD [3]: 2.6
Compound: COc1cccc(-c2ccc(=O)n(Cc3cccc(-c4ncc(OCCCN(C)C)cn4)c3)n2)c1
